Data published in PubChem BioAssay (NCI).
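Dose response: 5 concentrations. Exposure: 48 h. Format: 96-well plates. Endpoint: linear interpolation; highest concentration if not reached. GI50 is the concentration that inhibits growth by half. TGI is the concentration that stops growth completely.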

How the values were obtained:
Experiment in all cases: NCI anticancer screen, dose series, 48 h
[1] = system: NCI/ADR-RES ovarian
[2] = system: OVCAR-4 ovarian
[3] = system: HS 578T breast
[4] = system: NCI-H522 lung
[5] = system: RPMI-8226 leukemia
[6] = system: HL-60(TB) leukemia
[7] = system: MDA-MB-435

With CCSC1=NC2C(N(CC)C(=O)N2CC)N1/N=C/C=C/c1ccccc1[N+](=O)[O-] (stereo not drawn) the GI50 [1] was 0.209 µM, the TGI [1] was greater than 100 µM and the GI50 [2] was 0.28 µM. It also gave a TGI [2] greater than 100 µM, a GI50 [3] of 0.118 µM and a TGI [3] greater than 100 µM. The GI50 [4] was 0.0395 µM, the TGI [4] was 46.2 µM and the GI50 [5] was 0.334 µM. The TGI [5] was greater than 34.1 µM, the GI50 [6] was 0.205 µM and the TGI [6] was 0.502 µM.
COc1cccc(-c2nc3cc(NC(=O)c4ccc(Cl)c(C#N)c4)ccc3o2)c1 was tested, and the GI50 [1] was 1.42 µM, the TGI [1] was 4.31 µM and the GI50 [2] was 1.8 µM. For the same compound, the TGI [2] was 3.43 µM, the GI50 [3] was 8.89 µM and the TGI [3] was greater than 100 µM. It also gave a GI50 [4] of 1.68 µM, a TGI [4] of 4.54 µM and a GI50 [6] greater than 100 µM. It also gave a TGI [6] greater than 100 µM, a GI50 [7] of 1370 nM and a TGI [7] of 2.85 µM.
Work on COc1ccc(C2=Nn3c(nnc3-c3cc(Cl)cc(Cl)c3Cl)SC2)cc1 yielded a GI50 [1] of 0.248 µM, a TGI [1] of 1.26 µM and a GI50 [2] of 0.805 µM. The TGI [2] was greater than 100 µM, the GI50 [3] was 0.376 µM and the TGI [3] was 13.6 µM. The GI50 [4] was 0.256 µM, the TGI [4] was 2.51 µM and the GI50 [5] was 0.627 µM. It also gave a TGI [5] greater than 100 µM, a GI50 [6] of 0.461 µM and a TGI [6] of 2.03 µM. It also gave a GI50 [7] of 163 nM and a TGI [7] of 0.588 µM.
FC(F)(F)c1cccc(-c2nc3nc(Cl)c(Cl)nc3[nH]2)c1 showed a TGI [1] greater than 100 µM, a TGI [2] greater than 41.6 µM and a TGI [3] of 17.8 µM. It also gave a TGI [4] of 4.11 µM, a TGI [5] of 3.5 µM and a TGI [6] of 4.7 µM. For the same compound, the TGI [7] was 13 µM.
With CN(C)CCNC(=O)Cn1ccc(=O)c2cc([N+](=O)[O-])ccc21 the TGI [1] was greater than 100 µM, the TGI [3] was greater than 100 µM and the TGI [4] was greater than 100 µM. For the same compound, the TGI [5] was greater than 100 µM, the TGI [6] was greater than 100 µM and the TGI [7] was greater than 100 µM.
With O=C(Nc1cccc(Cl)c1)Nn1cnnc1 the GI50 [1] was greater than 50 µM, the TGI [1] was greater than 100 µM and the GI50 [2] was greater than 50 µM. For the same compound, the TGI [2] was greater than 100 µM, the GI50 [3] was greater than 50 µM and the TGI [3] was greater than 100 µM. It also gave a GI50 [4] greater than 50 µM, a TGI [4] greater than 100 µM and a GI50 [5] greater than 50 µM. It also gave a TGI [5] greater than 100 µM, a GI50 [6] greater than 50 µM and a TGI [6] greater than 100 µM. For the same compound, the GI50 [7] was greater than 50000 nM and the TGI [7] was greater than 100 µM.
In the case of CO/N=C(\COc1ccc2c(c1)[nH]c1ccccc12)c1ccc(OC)cc1, the GI50 [1] is reported as greater than 100 µM, the TGI [1] is reported as greater than 100 µM and the GI50 [2] is reported as 10.5 µM. The TGI [2] was greater than 100 µM, the GI50 [3] was 18.9 µM and the TGI [3] was greater than 100 µM. The GI50 [4] was 49.1 µM, the TGI [4] was greater than 100 µM and the GI50 [5] was greater than 100 µM. For the same compound, the TGI [5] was greater than 100 µM, the GI50 [6] was 62.2 µM and the TGI [6] was greater than 100 µM. The GI50 [7] was 43300 nM and the TGI [7] was greater than 100 µM.
C/C(=N/O)c1cccc(Nc2cc(-n3nnc4ccccc43)nc3ccccc23)c1 was tested, and the GI50 [1] was 8.36 µM, the TGI [1] was 27.9 µM and the GI50 [2] was 18.8 µM. It also gave a TGI [2] greater than 100 µM, a GI50 [3] of 14.3 µM and a TGI [3] of 45.5 µM. It also gave a GI50 [4] of 19.4 µM, a TGI [4] greater than 57.5 µM and a GI50 [5] of 3.07 µM. It also gave a TGI [5] of 14.4 µM, a GI50 [6] of 13.1 µM and a TGI [6] of 49.9 µM. It also gave a GI50 [7] of 13700 nM and a TGI [7] of 37.1 µM.
O=C1C=CC(=O)c2c1ccc1c3ccccc3n(Cc3ccc([N+](=O)[O-])cc3)c21 was tested, and the TGI [1] was greater than 100 µM, the TGI [2] was greater than 100 µM and the TGI [4] was 55.4 µM. The TGI [6] was 33.2 µM and the TGI [7] was greater than 100 µM.
O=C(O)c1nc(NCc2nc3cc(Cl)ccc3o2)n[nH]1 was tested, and the GI50 [1] was greater than 100 µM, the TGI [1] was greater than 100 µM and the GI50 [2] was greater than 100 µM. It also gave a TGI [2] greater than 100 µM, a GI50 [3] greater than 100 µM and a TGI [3] greater than 100 µM. It also gave a GI50 [4] greater than 100 µM, a TGI [4] greater than 100 µM and a GI50 [5] greater than 100 µM. For the same compound, the TGI [5] was greater than 100 µM, the GI50 [6] was greater than 100 µM and the TGI [6] was greater than 100 µM. The GI50 [7] was greater than 100000 nM and the TGI [7] was greater than 100 µM.
N#CC(C#N)=C/C=C(\Cl)c1ccc(Cl)cc1 gave a GI50 [1] of 4.57 µM, a TGI [1] of 16.2 µM and a GI50 [2] of 5.12 µM. The TGI [2] was 55.6 µM, the GI50 [3] was 7.47 µM and the TGI [3] was 26.3 µM. It also gave a GI50 [4] of 5.81 µM, a TGI [4] greater than 49.6 µM and a GI50 [5] of 4.12 µM. The TGI [5] was greater than 100 µM, the GI50 [7] was 2730 nM and the TGI [7] was 10 µM.
Work on COc1cc2c(c3c1c(=O)c1ccccc1n3C)C=CC1(CCCC1)O2 yielded a TGI [1] greater than 100 µM, a TGI [2] of 25.8 µM and a TGI [3] of 9.75 µM. For the same compound, the TGI [4] was 33.5 µM, the TGI [5] was 5.48 µM and the TGI [6] was 26.1 µM. The TGI [7] was 35 µM.
COC(=O)C1=C(O)C(C(=O)OC)C2CC(=O)CC1C2(C)C (stereo not drawn) was tested, and the TGI [1] was greater than 100 µM, the TGI [2] was greater than 100 µM and the TGI [3] was greater than 100 µM. The TGI [4] was greater than 100 µM, the TGI [5] was greater than 100 µM and the TGI [6] was greater than 100 µM. It also gave a TGI [7] greater than 100 µM.
Compound CCSCCCSCCSCC has a TGI [2] greater than 100 µM, a TGI [4] greater than 100 µM and a TGI [6] greater than 100 µM. The TGI [7] was greater than 100 µM.
O=C(Oc1cccnc1)c1cccnc1Nc1ccnc(C(F)(F)F)c1 gave a GI50 [1] greater than 100 µM, a TGI [1] greater than 100 µM and a GI50 [2] greater than 100 µM. It also gave a TGI [2] greater than 100 µM, a GI50 [3] of 32.2 µM and a TGI [3] greater than 100 µM. For the same compound, the GI50 [4] was 14.5 µM, the TGI [4] was greater than 100 µM and the GI50 [5] was 3.94 µM. The TGI [5] was 23.7 µM.
CCC1(O)C(=O)OCc2c1cc1n(c2=O)Cc2cc3ccccc3nc2-1 (stereo not drawn) gave a TGI [1] of 2.15 µM, a TGI [2] greater than 100 µM and a TGI [3] greater than 100 µM. The TGI [4] was 3.89 µM, the TGI [5] was 1.89 µM and the TGI [6] was 0.0659 µM. It also gave a TGI [7] of 8.35 µM.
O=C1/C(=C/c2ccc([N+](=O)[O-])cc2)CN(C(=O)CCN2CCC(=NO)CC2)C/C1=C\c1ccc([N+](=O)[O-])cc1 gave a GI50 [1] of 1.49 µM, a TGI [1] of 17.8 µM and a GI50 [2] of 1.31 µM. It also gave a TGI [2] of 5.36 µM, a GI50 [3] of 1.98 µM and a TGI [3] of 9.86 µM. The GI50 [4] was 0.86 µM, the TGI [4] was 3.28 µM and the GI50 [5] was 0.368 µM. For the same compound, the TGI [5] was 1.6 µM, the GI50 [6] was 1.85 µM and the TGI [6] was 6.88 µM. It also gave a GI50 [7] of 1000 nM and a TGI [7] of 3.45 µM.
CCCN1C(=O)NC(=O)C(CC)(N2C(=O)c3c(F)c(F)c(F)c(F)c3C2=O)C1=O (stereo not drawn) showed a GI50 [1] of 2.91 µM, a TGI [1] of 10.5 µM and a GI50 [2] of 2.22 µM. The TGI [2] was 4.83 µM, the GI50 [3] was 2.3 µM and the TGI [3] was 6.94 µM. The GI50 [4] was 1.32 µM, the TGI [4] was 3.34 µM and the GI50 [5] was 0.596 µM. The TGI [5] was 3.14 µM, the GI50 [6] was 1.97 µM and the TGI [6] was 4.33 µM. It also gave a GI50 [7] of 2250 nM and a TGI [7] of 6.52 µM.
With CC(=O)Nc1ccc(-c2cc(C(=O)O)c3cc4ccccc4cc3n2)cc1 the TGI [1] was greater than 100 µM, the TGI [2] was greater than 100 µM and the TGI [3] was greater than 100 µM. It also gave a TGI [4] greater than 100 µM, a TGI [5] greater than 100 µM and a TGI [6] greater than 100 µM. For the same compound, the TGI [7] was greater than 100 µM.
For O=C(NCC1CC1)c1ccc(-c2cccc(C(=O)NC3CC3)c2)cc1, the GI50 [1] was greater than 25 µM, the TGI [1] was greater than 25 µM and the GI50 [2] was greater than 25 µM. It also gave a TGI [2] greater than 25 µM, a GI50 [3] greater than 25 µM and a TGI [3] greater than 25 µM. The GI50 [4] was greater than 25 µM, the TGI [4] was greater than 25 µM and the GI50 [5] was greater than 25 µM. It also gave a TGI [5] greater than 25 µM, a GI50 [6] greater than 25 µM and a TGI [6] greater than 25 µM. It also gave a GI50 [7] greater than 25000 nM and a TGI [7] greater than 25 µM.
c1ccc(C2ONC3=NCCN32)cc1 (stereo not drawn) gave a GI50 [1] of 25.8 µM, a TGI [1] of 88.6 µM and a GI50 [2] greater than 100 µM. For the same compound, the TGI [2] was greater than 100 µM, the GI50 [4] was 44.5 µM and the TGI [4] was greater than 100 µM. The GI50 [7] was 93900 nM and the TGI [7] was greater than 100 µM.
O=[N+]([O-])c1ccccc1N=Nc1c(O)[nH]c2cccc(C(F)(F)F)c12 showed a TGI [1] greater than 100 µM, a TGI [2] of 52 µM and a TGI [3] greater than 100 µM. It also gave a TGI [4] of 69.3 µM, a TGI [5] greater than 100 µM and a TGI [6] greater than 100 µM. The TGI [7] was 40.7 µM.
